Experimental data as given in ChEMBL document CHEMBL4507289, “Data for DCP probe GSM1” (2021).

How the values were obtained:
[1] = molecular target: Tyrosine-protein kinase receptor TYRO3 (Homo sapiens) (UniProt Q06418); settings: Compound concentration 1000.0 nM
[2] = test system: Epidermal growth factor receptor (Homo sapiens), P00533 [UNDEFINED MUTATION]; settings: Compound concentration 1000.0 nM
[3] = molecular target: Myosin light chain kinase, smooth muscle (Homo sapiens) (UniProt Q15746); settings: Compound concentration 1000.0 nM
[4] = molecular target: Serine/threonine-protein kinase 24 (Homo sapiens) (UniProt Q9Y6E0); settings: Compound concentration 1000.0 nM
[5] = molecular target: Beta-1 adrenergic receptor (Homo sapiens) (UniProt P08588); settings: Compound concentration 10.0 uM
Chain of Beta-1 adrenergic receptor (Homo sapiens) (P08588 whole entry, looked up): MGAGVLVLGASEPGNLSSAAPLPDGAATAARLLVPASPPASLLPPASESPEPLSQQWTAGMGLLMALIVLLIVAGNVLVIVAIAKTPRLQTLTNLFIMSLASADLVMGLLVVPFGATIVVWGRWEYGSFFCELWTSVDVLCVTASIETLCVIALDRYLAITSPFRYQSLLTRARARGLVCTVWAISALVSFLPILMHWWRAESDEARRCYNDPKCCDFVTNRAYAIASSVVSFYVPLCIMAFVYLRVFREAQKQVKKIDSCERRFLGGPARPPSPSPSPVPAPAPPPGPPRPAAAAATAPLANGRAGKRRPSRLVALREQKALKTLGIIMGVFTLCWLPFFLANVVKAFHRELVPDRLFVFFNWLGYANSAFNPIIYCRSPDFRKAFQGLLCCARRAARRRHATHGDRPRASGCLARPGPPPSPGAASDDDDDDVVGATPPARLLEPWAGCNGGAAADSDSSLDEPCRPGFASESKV

[6] = molecular target: Mitogen-activated protein kinase kinase kinase 15 (Homo sapiens) (UniProt Q6ZN16); settings: Compound concentration 1000.0 nM
[7] = test system: Receptor-type tyrosine-protein kinase FLT3 (Homo sapiens), P36888 [N841I]; settings: Compound concentration 1000.0 nM
[8] = molecular target: Delta-type opioid receptor (Homo sapiens) (UniProt P41143); settings: Compound concentration 10.0 uM
[9] = molecular target: RAC-beta serine/threonine-protein kinase (Homo sapiens) (UniProt P31751); settings: Compound concentration 1000.0 nM
[10] = molecular target: Kappa-type opioid receptor (Homo sapiens) (UniProt P41145); settings: Compound concentration 10.0 uM
Chain of Kappa-type opioid receptor (Homo sapiens) (P41145 whole entry): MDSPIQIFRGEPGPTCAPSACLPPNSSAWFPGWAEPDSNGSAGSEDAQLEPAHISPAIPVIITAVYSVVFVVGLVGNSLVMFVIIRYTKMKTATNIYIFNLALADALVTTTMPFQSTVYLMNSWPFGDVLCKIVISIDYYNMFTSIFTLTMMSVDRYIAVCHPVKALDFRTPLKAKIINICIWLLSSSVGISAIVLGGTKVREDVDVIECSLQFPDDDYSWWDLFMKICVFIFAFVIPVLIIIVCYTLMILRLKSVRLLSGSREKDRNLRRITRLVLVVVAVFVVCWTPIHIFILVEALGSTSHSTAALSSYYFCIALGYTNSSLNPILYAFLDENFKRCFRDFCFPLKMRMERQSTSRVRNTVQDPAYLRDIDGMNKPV

[11] = molecular target: Tyrosine-protein kinase receptor UFO (Homo sapiens) (UniProt P30530); settings: Compound concentration 1000.0 nM
[12] = molecular target: Serine/threonine-protein kinase PLK2 (Homo sapiens) (UniProt Q9NYY3); settings: Compound concentration 1000.0 nM
[13] = molecular target: Calcium/calmodulin-dependent protein kinase type IV (Homo sapiens) (UniProt Q16566); settings: Compound concentration 1000.0 nM
[14] = molecular target: Cyclin-dependent kinase-like 2 (Homo sapiens) (UniProt Q92772); settings: Compound concentration 1000.0 nM
[15] = molecular target: Mitogen-activated protein kinase kinase kinase 4 (Homo sapiens) (UniProt Q9Y6R4); settings: Compound concentration 1000.0 nM
Chain of Mitogen-activated protein kinase kinase kinase 4 (Homo sapiens) (Q9Y6R4 whole entry): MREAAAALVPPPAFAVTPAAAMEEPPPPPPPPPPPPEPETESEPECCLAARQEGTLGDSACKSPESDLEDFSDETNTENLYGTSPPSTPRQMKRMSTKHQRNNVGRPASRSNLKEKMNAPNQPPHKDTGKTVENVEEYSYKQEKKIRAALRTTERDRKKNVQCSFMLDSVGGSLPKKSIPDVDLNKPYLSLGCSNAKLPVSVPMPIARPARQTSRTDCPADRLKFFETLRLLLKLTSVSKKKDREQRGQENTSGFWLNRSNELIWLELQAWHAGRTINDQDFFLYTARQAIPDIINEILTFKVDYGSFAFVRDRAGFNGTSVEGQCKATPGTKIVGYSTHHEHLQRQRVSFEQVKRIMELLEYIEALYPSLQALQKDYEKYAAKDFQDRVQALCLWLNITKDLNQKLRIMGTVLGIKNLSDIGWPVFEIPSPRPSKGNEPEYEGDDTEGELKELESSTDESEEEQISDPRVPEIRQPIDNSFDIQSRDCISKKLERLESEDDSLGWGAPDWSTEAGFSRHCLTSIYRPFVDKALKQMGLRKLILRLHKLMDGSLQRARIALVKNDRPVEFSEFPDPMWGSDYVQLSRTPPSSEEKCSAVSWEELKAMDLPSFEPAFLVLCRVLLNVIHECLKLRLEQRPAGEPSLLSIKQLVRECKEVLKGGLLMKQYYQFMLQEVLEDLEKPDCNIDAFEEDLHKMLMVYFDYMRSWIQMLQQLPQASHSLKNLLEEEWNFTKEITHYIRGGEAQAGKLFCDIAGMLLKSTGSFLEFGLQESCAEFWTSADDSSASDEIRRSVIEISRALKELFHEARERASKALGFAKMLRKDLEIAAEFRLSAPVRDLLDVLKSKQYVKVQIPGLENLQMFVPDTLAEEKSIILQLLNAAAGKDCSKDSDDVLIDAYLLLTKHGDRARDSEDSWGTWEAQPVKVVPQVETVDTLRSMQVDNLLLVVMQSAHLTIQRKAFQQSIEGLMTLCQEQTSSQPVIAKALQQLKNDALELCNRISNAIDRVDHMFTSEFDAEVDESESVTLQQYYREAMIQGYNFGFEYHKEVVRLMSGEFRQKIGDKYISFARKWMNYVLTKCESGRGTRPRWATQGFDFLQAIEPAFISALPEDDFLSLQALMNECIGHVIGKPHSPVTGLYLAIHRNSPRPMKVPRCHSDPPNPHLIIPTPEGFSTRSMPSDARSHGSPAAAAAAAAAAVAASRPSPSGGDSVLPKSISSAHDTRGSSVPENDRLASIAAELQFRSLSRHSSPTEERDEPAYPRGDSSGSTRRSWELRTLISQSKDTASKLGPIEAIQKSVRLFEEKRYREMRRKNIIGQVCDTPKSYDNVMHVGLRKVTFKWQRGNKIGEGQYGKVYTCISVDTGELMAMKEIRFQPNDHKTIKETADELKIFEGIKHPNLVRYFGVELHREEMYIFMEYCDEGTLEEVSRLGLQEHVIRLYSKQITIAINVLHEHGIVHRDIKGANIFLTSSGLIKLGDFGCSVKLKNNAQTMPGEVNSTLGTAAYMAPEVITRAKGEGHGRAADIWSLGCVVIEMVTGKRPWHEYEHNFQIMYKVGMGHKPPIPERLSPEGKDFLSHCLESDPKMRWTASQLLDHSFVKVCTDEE

[16] = molecular target: Sigma non-opioid intracellular receptor 1 (Homo sapiens) (UniProt Q99720); settings: Compound concentration 10.0 uM
Chain of Sigma non-opioid intracellular receptor 1 (Homo sapiens) (Q99720 whole entry): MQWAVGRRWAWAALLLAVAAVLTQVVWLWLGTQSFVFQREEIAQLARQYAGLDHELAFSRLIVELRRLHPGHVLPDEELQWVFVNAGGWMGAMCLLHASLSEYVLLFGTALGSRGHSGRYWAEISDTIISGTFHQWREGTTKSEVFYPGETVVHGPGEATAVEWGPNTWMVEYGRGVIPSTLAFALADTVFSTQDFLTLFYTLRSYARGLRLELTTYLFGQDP

[17] = molecular target: Cyclin-dependent kinase 11B (Homo sapiens) (UniProt P21127); settings: Compound concentration 1000.0 nM
[18] = molecular target: Receptor-type tyrosine-protein kinase FLT3 (Homo sapiens) (UniProt P36888); settings: Compound concentration 1000.0 nM
[19] = molecular target: Serine/threonine-protein kinase TBK1 (Homo sapiens) (UniProt Q9UHD2); settings: Compound concentration 1000.0 nM
Chain of Serine/threonine-protein kinase TBK1 (Homo sapiens) (Q9UHD2 whole entry, canonical isoform): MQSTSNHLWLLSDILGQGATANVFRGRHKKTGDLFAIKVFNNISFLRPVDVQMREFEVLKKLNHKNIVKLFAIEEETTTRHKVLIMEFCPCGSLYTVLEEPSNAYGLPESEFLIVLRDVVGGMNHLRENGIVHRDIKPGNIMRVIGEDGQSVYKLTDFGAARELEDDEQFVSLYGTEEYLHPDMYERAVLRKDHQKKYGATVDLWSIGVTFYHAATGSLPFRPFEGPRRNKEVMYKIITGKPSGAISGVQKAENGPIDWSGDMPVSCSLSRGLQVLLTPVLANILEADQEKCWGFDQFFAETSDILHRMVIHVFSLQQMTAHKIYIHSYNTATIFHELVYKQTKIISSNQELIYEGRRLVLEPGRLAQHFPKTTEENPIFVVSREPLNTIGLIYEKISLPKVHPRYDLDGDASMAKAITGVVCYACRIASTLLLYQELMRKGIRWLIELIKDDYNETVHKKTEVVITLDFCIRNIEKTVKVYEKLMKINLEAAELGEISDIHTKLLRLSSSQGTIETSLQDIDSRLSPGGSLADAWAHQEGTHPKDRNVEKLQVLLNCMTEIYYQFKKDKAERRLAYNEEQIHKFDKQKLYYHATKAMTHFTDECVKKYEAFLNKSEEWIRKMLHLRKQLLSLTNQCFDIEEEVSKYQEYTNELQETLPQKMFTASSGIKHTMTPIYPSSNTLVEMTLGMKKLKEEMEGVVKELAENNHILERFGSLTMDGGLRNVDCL

[20] = test system: Phosphatidylinositol 4,5-bisphosphate 3-kinase catalytic subunit alpha isoform (Homo sapiens), P42336 [E542K]; settings: Compound concentration 1000.0 nM
Chain of Phosphatidylinositol 4,5-bisphosphate 3-kinase catalytic subunit alpha isoform (Homo sapiens), P42336 [E542K] (P42336 whole entry E542K, canonical isoform): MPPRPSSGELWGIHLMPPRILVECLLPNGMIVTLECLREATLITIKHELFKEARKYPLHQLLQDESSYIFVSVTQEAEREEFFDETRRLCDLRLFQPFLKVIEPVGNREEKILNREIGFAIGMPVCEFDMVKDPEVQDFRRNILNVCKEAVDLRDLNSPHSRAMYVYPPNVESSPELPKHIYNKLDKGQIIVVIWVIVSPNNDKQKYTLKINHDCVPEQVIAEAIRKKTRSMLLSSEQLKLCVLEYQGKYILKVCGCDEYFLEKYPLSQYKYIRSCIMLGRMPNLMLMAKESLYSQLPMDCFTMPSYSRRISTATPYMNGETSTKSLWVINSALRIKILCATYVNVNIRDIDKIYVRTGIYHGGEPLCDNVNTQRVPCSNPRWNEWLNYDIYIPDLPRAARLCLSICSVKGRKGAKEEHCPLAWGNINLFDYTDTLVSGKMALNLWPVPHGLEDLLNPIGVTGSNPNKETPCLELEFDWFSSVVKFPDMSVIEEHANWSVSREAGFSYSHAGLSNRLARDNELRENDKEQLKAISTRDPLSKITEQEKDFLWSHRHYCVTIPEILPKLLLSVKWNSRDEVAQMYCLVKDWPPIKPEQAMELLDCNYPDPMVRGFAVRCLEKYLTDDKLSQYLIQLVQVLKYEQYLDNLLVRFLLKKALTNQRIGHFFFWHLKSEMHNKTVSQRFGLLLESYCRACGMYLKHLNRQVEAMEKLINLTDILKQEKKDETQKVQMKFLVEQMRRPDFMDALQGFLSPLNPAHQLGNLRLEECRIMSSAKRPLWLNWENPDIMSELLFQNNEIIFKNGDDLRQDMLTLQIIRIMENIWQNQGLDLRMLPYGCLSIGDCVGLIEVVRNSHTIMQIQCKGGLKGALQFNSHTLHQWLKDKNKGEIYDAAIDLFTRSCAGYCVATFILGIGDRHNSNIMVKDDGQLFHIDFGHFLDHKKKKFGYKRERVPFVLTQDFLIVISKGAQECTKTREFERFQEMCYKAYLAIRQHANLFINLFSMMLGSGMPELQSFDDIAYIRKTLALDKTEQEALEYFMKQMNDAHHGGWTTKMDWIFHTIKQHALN

[21] = molecular target: Serine/threonine-protein kinase Sgk2 (Homo sapiens) (UniProt Q9HBY8); settings: Compound concentration 1000.0 nM
[22] = molecular target: Casein kinase I isoform gamma-1 (Homo sapiens) (UniProt Q9HCP0); settings: Compound concentration 1000.0 nM
[23] = molecular target: Inhibitor of nuclear factor kappa-B kinase subunit alpha (Homo sapiens) (UniProt O15111); settings: Compound concentration 1000.0 nM
[24] = molecular target: Dual specificity testis-specific protein kinase 1 (Homo sapiens) (UniProt Q15569); settings: Compound concentration 1000.0 nM
[25] = molecular target: Histamine H4 receptor (Homo sapiens) (UniProt Q9H3N8); settings: Compound concentration 10.0 uM
[26] = molecular target: AP2-associated protein kinase 1 (Homo sapiens) (UniProt Q2M2I8); settings: Compound concentration 1000.0 nM
[27] = molecular target: Activin receptor type-1 (Homo sapiens) (UniProt Q04771); settings: Compound concentration 1000.0 nM
Chain of Activin receptor type-1 (Homo sapiens) (Q04771 whole entry): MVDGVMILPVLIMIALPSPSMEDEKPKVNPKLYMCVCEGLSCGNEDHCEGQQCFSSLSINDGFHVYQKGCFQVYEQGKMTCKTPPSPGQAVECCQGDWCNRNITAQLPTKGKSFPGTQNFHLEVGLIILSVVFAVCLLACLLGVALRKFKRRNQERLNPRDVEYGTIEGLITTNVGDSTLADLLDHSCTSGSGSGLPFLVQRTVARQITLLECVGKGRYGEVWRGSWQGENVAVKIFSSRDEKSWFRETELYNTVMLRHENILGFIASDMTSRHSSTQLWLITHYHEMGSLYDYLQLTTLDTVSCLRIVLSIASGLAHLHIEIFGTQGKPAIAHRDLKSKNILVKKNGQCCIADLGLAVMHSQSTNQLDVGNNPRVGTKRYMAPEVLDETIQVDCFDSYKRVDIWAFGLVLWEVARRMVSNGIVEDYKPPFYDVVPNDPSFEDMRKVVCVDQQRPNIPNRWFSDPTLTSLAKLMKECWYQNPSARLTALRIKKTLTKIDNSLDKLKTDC

[28] = molecular target: Mitogen-activated protein kinase kinase kinase kinase 2 (Homo sapiens) (UniProt Q12851); settings: Compound concentration 1000.0 nM
[29] = molecular target: Serine/threonine-protein kinase PAK 3 (Homo sapiens) (UniProt O75914); settings: Compound concentration 1000.0 nM
[30] = molecular target: 5'-AMP-activated protein kinase catalytic subunit alpha-2 (Homo sapiens) (UniProt P54646); settings: Compound concentration 1000.0 nM
[31] = test system: Tyrosine-protein kinase ABL1 (Homo sapiens), P00519 [H396P]; settings: Compound concentration 1000.0 nM
[32] = molecular target: Serine/threonine-protein kinase OSR1 (Homo sapiens) (UniProt O95747); settings: Compound concentration 1000.0 nM
[33] = molecular target: Casein kinase I isoform epsilon (Homo sapiens) (UniProt P49674); settings: Compound concentration 1000.0 nM
[34] = molecular target: Serine/threonine-protein kinase DCLK2 (Homo sapiens) (UniProt Q8N568); settings: Compound concentration 1000.0 nM
[35] = molecular target: Mitotic checkpoint serine/threonine-protein kinase BUB1 (Homo sapiens) (UniProt O43683); settings: Compound concentration 1000.0 nM
[36] = molecular target: Eukaryotic translation initiation factor 2-alpha kinase 1 (Homo sapiens) (UniProt Q9BQI3); settings: Compound concentration 1000.0 nM
[37] = molecular target: Receptor tyrosine-protein kinase erbB-3 (Homo sapiens) (UniProt P21860); settings: Compound concentration 1000.0 nM
[38] = test system: Receptor-type tyrosine-protein kinase FLT3 (Homo sapiens), P36888 [UNDEFINED MUTATION]; settings: Compound concentration 1000.0 nM
[39] = test system: Tyrosine-protein kinase ABL1 (Homo sapiens), P00519 [Q252H]; settings: Compound concentration 1000.0 nM
[40] = molecular target: MAP kinase-interacting serine/threonine-protein kinase 2 (Homo sapiens) (UniProt Q9HBH9); settings: Compound concentration 1000.0 nM
[41] = test system: Epidermal growth factor receptor (Homo sapiens), P00533 [T790M]; settings: Compound concentration 1000.0 nM
[42] = molecular target: Macrophage colony-stimulating factor 1 receptor (Homo sapiens) (UniProt P07333); settings: Compound concentration 1000.0 nM
[43] = molecular target: SRSF protein kinase 1 (Homo sapiens) (UniProt Q96SB4); settings: Compound concentration 1000.0 nM
[44] = molecular target: Serine/threonine-protein kinase pim-2 (Homo sapiens) (UniProt Q9P1W9); settings: Compound concentration 1000.0 nM
[45] = molecular target: Serine/threonine-protein kinase LATS2 (Homo sapiens) (UniProt Q9NRM7); settings: Compound concentration 1000.0 nM

COc1cc(-c2cn([C@H]3CCc4ccccc4N(CC(F)(F)F)C3=O)nn2)ccc1-n1ccc(C)n1
inactive: residual activity [1] 100% | residual activity [2] 100% | residual activity [3] 80% | residual activity [4] 97% | inhibition [5] 3.7% | residual activity [6] 84% | residual activity [7] 100% | inhibition [8] 16.7% | residual activity [9] 93% | inhibition [10] 13.6% | residual activity [11] 93% | residual activity [12] 100% | residual activity [13] 100% | residual activity [14] 91% | residual activity [15] 85% | inhibition [16] 23.2% | residual activity [17] 100% | residual activity [18] 85% | residual activity [19] 88% | residual activity [20] 82% | residual activity [21] 100% | residual activity [22] 77% | residual activity [23] 98% | residual activity [24] 93% | inhibition [25] 9.63% | residual activity [26] 100% | residual activity [27] 100% | residual activity [28] 80% | residual activity [29] 100% | residual activity [30] 71% | residual activity [31] 70% | residual activity [32] 91% | residual activity [33] 100% | residual activity [34] 92% | residual activity [35] 94% | residual activity [36] 93% | residual activity [37] 77% | residual activity [38] 99% | residual activity [39] 71% | residual activity [40] 66% | residual activity [41] 59% | residual activity [42] 93% | residual activity [43] 100% | residual activity [44] 100% | residual activity [45] 69%

COc1cc(-c2cn([C@H]3CCc4c(F)cccc4N(CC(F)(F)F)C3=O)nn2)ccc1-n1cnc(C)c1
inactive: residual activity [1] 100% | residual activity [2] 94% | residual activity [3] 81% | residual activity [4] 100% | inhibition [5] 2.45% | residual activity [6] 100% | residual activity [7] 99% | inhibition [8] 18.2% | residual activity [9] 93% | inhibition [10] 7.19% | residual activity [11] 98% | residual activity [12] 100% | residual activity [13] 100% | residual activity [14] 67% | residual activity [15] 94% | inhibition [16] 26.6% | residual activity [17] 95% | residual activity [18] 89% | residual activity [19] 100% | residual activity [20] 88% | residual activity [21] 95% | residual activity [22] 86% | residual activity [23] 100% | residual activity [24] 100% | inhibition [25] -2.49% | residual activity [26] 100% | residual activity [27] 100% | residual activity [28] 100% | residual activity [29] 100% | residual activity [30] 100% | residual activity [31] 100% | residual activity [32] 100% | residual activity [33] 80% | residual activity [34] 100% | residual activity [35] 100% | residual activity [36] 100% | residual activity [37] 98% | residual activity [38] 100% | residual activity [39] 100% | residual activity [40] 76% | residual activity [41] 83% | residual activity [42] 100% | residual activity [43] 100% | residual activity [44] 100% | residual activity [45] 100%
